# Test results reported in patent US20250115620A1, “BRIDGED TRICYCLIC CARBAMOYLPYRIDONE COMPOUNDS AND USES THEREOF” (Gilead Sciences, Inc., priority 2022, published 2025).
# Where two headings read alike, the source gives them in different places.
# Legend:
# in vitro = details: human, uninfected MT-4 cells
# MT-4 cells = assay: Cytotoxicity assay in MT-4 cells; details: uninfected MT-4 cells
# pLAI reporter virus = assay: microbe, parasite or virus in culture; type: cell-based, HIV
# HIV-1 (IIIB) = assay: microbe, parasite or virus in culture; type: cell-based; details: HIV-1 (IIIB) in MT-4 cells, 5 days incubation, Cell Titer Glo, read-out: MT4 EC50
# Procedure: Compounds were tested in a high-throughput 384-well assay format for their ability to inhibit the replication of HIV-1 (IIIB) in MT-4 cells. Compounds were serially diluted (1:3) in DMSO on 384-well polypropylene plates and further diluted 200-fold into complete RPMI media (10% FBS, 1% P/S) using the Biotek Micro Flow and Labcyte ECHO acoustic dispenser. Each plate contained up to 8 test compounds, with negative (No Drug Control) and 5 μM AZT positive controls. MT-4 cells were pre-infected with 10 μL of either RPMI (mock-infected) or a fresh 1:250 dilution of HIV-1 IIIB concentrated virus stock. Infected and uninfected MT-4 cells were further diluted in complete RPMI media and added to each plate using a Micro Flow dispenser. After 5 days incubation in a humidified and temperature controlled incubator (37° C.), Cell Titer Glo (Promega) was added to the assay plates and chemiluminescence read using an Envision plate-reader.
# [1] = Half life, PK in monkeys after intravenous infusion; type: in vivo; details: cynomolgus, monkey, single-dose intravenous infusion for 30 minutes, plasma, read-out: Cyno half-life (converted)
# Procedure: Test compound PK was determined in monkeys (Labcorp, Madison, WI) following a single-dose intravenous infusion for 30 minutes. The dosing vehicle was a mixture of N-methylpyrrolidone, polyethylene glycol 300, and water for intravenous administration in monkeys. […] Nonclinical plasma samples were prepared by addition of 200 μl cold acetonitrile/internal standard solution to 96-well plates containing 50 μl aliquots of each plasma sample. After protein precipitation, each of the supernatants (50 μl) were transferred to clean 96-well plates and diluted with 450 μl of water. The sample injection volume was 2 μl. Samples were analyzed by a multiple reaction monitoring LC-MS/MS method. […] Thermo Fisher Scientific), and the ABSciex QTRAP5500 Mass Spectrometer LC-MS/MS system. […] The following plasma PK parameters were estimated in nonclinical species (as appropriate): observed peak plasma concentration (Cmax), time to reach Cmax (Tmax), last quantifiable plasma concentration (Clast), t1/2, time of Clast (Tlast), area under the plasma concentration-time curve (AUC) from time 0 [NT], AUC from time 0 to infinity (AUCinf), CL, mean residence time (MRT), and volume of distribution at steady state (Vss).
# G140S/Q148R = assay: HIV double mutant assay in MT-4 cells; type: cell-based; details: G140S/Q148R vs wild type HXB2, MT-4 cells, 5 day incubation
# Procedure: (§1) The HIV double mutant assay assesses the changes in efficacy of antiviral compounds against viral mutants compared to wild type. Each of the three mutant virus strains in this panel contain two amino acid substitutions ([…], E138K/Q148K and E92Q/N155H) of the parental HXB2. Test compounds and controls were serially diluted and spotted in replicates into 384 well black assay plates using acoustic transfer (Echo). Replicate sets of plates were made for each strain. MT-4 cells were grown in batch, centrifuged and resuspended in fresh CCM media (RPMI w/10% FBS, 1% PS) at 2×10^6 cells/ml. Cells were batch infected with each mutant strain at optimized volumes (currently HXB2 25 ul/ml; […], E138K/Q148K and E92Q/N155H at 40 ul/ml cells). The size of each infection mix was based on number of sample plates to be tested. Each infection mix was transferred into 5 ml closed tubes and nutated rapidly on a shaker at 37 deg. incubator for 1 hour. The infection mixes were then diluted 25× in fresh CCM media then added to assay plates at 40 ul per well using a Viaflo 384 pipettor. After 5 day incubation at 37 degrees in a CO2 incubator, assay plates were processed with Cell-titer glo reagent using a ViaFlo 384 with an addition/mixing program. Plates were read immediately on Envision reader. Assay signals were plotted and dose response curves generated to determine individual compound EC50s. The effect of each mutation was assessed by comparing EC50s of wild type and mutant strains.
# E92Q/N155H = assay: HIV double mutant assay in MT-4 cells; type: cell-based; details: E92Q/N155H vs wild type HXB2, MT-4 cells, 5 day incubation
# Procedure: as §1
# E138K/Q148K = assay: HIV double mutant assay in MT-4 cells; type: cell-based; details: E138K/Q148K vs wild type HXB2, MT-4 cells, 5 day incubation
# Procedure: as §1
# [2] = Human immunodeficiency virus 1, MT4, 72 h, read-out: RLUC CCM EC50
# [3] = Human immunodeficiency virus 1, IIIB, MT4, 120 h
# [4] = Human immunodeficiency virus 1, MT4, 72 h, read-out: RLUC 50% HS EC50
Molecule,CC50 at 5 days (in vitro),CC50 (MT-4 cells),EC50 (pLAI reporter virus; [2]),EC50 (pLAI reporter virus; read-out: RLUC CCM EC50),EC50 (HIV-1 (IIIB)),EC50 (HIV-1 (IIIB); [3]),half-life [1],EC50 (pLAI reporter virus; [4]),Double Mutant Shift (fold over wild type) (G140S/Q148R),Double Mutant Shift (fold over wild type) (E92Q/N155H),Double Mutant Shift (fold over wild type) (E138K/Q148K),"EC50 (pLAI reporter virus; CCM media (RPMI/10% FBS), MT-4 cells, 3 days, read-out: RLUC CCM EC50)","EC50 (pLAI reporter virus; read-out: RLUC 50% HS EC50, 50% human serum media, MT-4 cells, 3 days)"
"CC1=NN(c2ccccc2)C2(CC[C@H](C)N3C[C@H]2n2cc(C(=O)NCc4c(F)cc(F)cc4F)c(=O)c(O)c2C3=O)C1 (single isomer, unassigned) [Example 90, (3′S,7′R)-12′-hydroxy-3′,5-dimethyl-1′,11′-dioxo-2-phenyl-N-(2,4,6-trifluorobenzyl)-1′,2,4,4′,5′,11′-hexahydro-3′H,7′H-spiro[pyrazole-3,6′-[2,7]methanopyrido[1,2-a][1,4]diazonine]-10′-carboxamide]",22300 nM,20000 nM,1.3 nM,1.2 nM,3.2 nM,4.3 nM,–,–,–,–,–,–,–
"CC1=NO[C@@]2(CC[C@H](C)N3C[C@H]2n2cc(C(=O)NCc4ccc(F)cc4F)c(=O)c(O)c2C3=O)C1 [Example 1, (3'S,5S,7′R)—N-(2,4-difluorobenzyl)-12′-hydroxy-3,3′-dimethyl-1′,11′-dioxo-1′,4′,5′,11′-tetrahydro-3′H,4H,7′H-spiro[isoxazole-5,6′-[2,7]methanopyrido[1,2-a][1,4]diazonine]-10′-carboxamide]",20400 nM,–,0.3 nM,0.25 nM,–,0.8 nM,29 h,92 nM,4×,1×,3×,–,–
"COC1=NO[C@@]2(CC[C@H](C)N3C[C@H]2n2cc(C(=O)NCc4ccc(F)cc4F)c(=O)c(O)c2C3=O)C1 [Example 40, (3′S,5S,7′R)—N-(2,4-difluorobenzyl)-12′-hydroxy-3-methoxy-3′-methyl-1′,11′-dioxo-1′,4′,5′,11′-tetrahydro-3′H,4H,7′H-spiro[isoxazole-5,6′-[2,7]methanopyrido[1,2-a][1,4]diazonine]-10′-carboxamide]",34100 nM,–,0.2 nM,–,–,0.8 nM,12 h,22.5 nM,5×,1×,4×,–,–
"C[C@H]1CC[C@]2(CO2)[C@H]2CN1C(=O)c1c(O)c(=O)c(C(=O)NCc3c(F)cc(F)cc3F)cn12 [Example 165, (2R,3′S,7′R)-12′-hydroxy-3′-methyl-1′,11′-dioxo-N-(2,4,6-trifluorobenzyl)-1′,4′,5′,11′-tetrahydro-3′H,7′H-spiro[oxirane-2,6′-[2,7]methanopyrido[1,2-a][1,4]diazonine]-10′-carboxamide]",6590 nM,–,0.3 nM,–,–,1.4 nM,–,5.4 nM,–,–,–,–,–
"C[C@H]1CC[C@@]2(CO2)[C@H]2CN1C(=O)c1c(O)c(=O)c(C(=O)NCc3c(F)cc(F)cc3F)cn12 [Example 166, (2S,3′S,7′R)-12′-hydroxy-3′-methyl-1′,11′-dioxo-N-(2,4,6-trifluorobenzyl)-1′,4′,5′,11′-tetrahydro-3′H,7′H-spiro[oxirane-2,6′-[2,7]methanopyrido[1,2-a][1,4]diazonine]-10′-carboxamide]",4600 nM,–,0.2 nM,–,–,0.9 nM,–,1.3 nM,–,–,–,–,–
"COC[C@H]1CO[C@]2(CC[C@H](C)N3C[C@H]2n2cc(C(=O)NCc4c(F)cc(F)cc4F)c(=O)c(O)c2C3=O)O1 [Example 167, (2R,3′S,4S,7′R)-12′-hydroxy-4-(methoxymethyl)-3′-methyl-1′,11′-dioxo-N-(2,4,6-trifluorobenzyl)-1′,4′,5′,11′-tetrahydro-3′H,7′H-spiro[[1,3]dioxolane-2,6′-[2,7]methanopyrido[1,2-a][1,4]diazonine]-10′-carboxamide]",35800 nM,–,0.6 nM,–,–,1.7 nM,–,8.7 nM,–,–,–,–,–
O=C(NCc1c(F)cc(F)cc1F)c1cn2c(c(O)c1=O)C(=O)N1CCCC[C@H]2C1 [Reference Compound A],–,–,0.35 nM,–,–,1.1 nM,3 h,2 nM,10×,2×,13×,–,–
O=C(NCc1ccc(F)cc1F)c1cn2c(c(O)c1=O)C(=O)N1CCCC[C@H]2C1 [Reference Compound B],–,–,0.28 nM,–,–,1.5 nM,5 h,1.1 nM,12×,3×,18×,–,–
"O=C(NCc1ccc(F)cc1F)c1cn2c(c(O)c1=O)C(=O)N1CCCC3(CC3)[C@H]2C1 [Reference Compound C, reference compound]",–,–,0.25 nM,–,–,1.2 nM,–,2 nM,5×,2×,3×,–,–
C[C@H]1CCC[C@H]2CN1C(=O)c1c(O)c(=O)c(C(=O)NCc3ccc(F)cc3F)cn12 [Reference Compound D],–,–,0.22 nM,–,–,1.3 nM,3 h,7.5 nM,5×,1×,6×,–,–
"(3′S,5S,7′R)—N-((2,4-difluorophenyl)methyl-d2)-12′-hydroxy-3,3′-dimethyl-1′,11′-dioxo-1′,4′,5′,11′-tetrahydro-3′H,4H,7′H-spiro[isoxazole-5,6′-[2,7]methanopyrido[1,2-a][1,4]diazonine]-10′-carboxamide-N′-^15N [Example 151]",–,13800 nM,–,–,1.8 nM,–,–,–,–,–,–,0.3 nM,69.2 nM
